Test results: patent publication US11090355B2, “Compositions and methods for the treatment of neurodamage” (BIOINCEPT, LLC, priority 2015, dated 2021)
Marks after values point to notes of the source that are not given here.

Tests used:
PDI = PDI (Homo sapiens, UniProt P07237); assay: binding to PDI, sPIF compared to scrambled PIF
Excerpt: (FIG. 2). […] (FIG. 3). […] (FIG. 4). […] Thus dependent on the target Kv1.3 or IDE the mutated PIF-1 can have a target-specific effect which can also translate to diverse biological activity.

EAE = assay: PLP139-151 induced EAE, episodic treatment, paralysis scores; details: for MCE (mean clinical score at end) / MCS (mean clinical score) / PP (mean peak paralysis score): short term

Sequence of PDI (P07237 18-508, species assumed): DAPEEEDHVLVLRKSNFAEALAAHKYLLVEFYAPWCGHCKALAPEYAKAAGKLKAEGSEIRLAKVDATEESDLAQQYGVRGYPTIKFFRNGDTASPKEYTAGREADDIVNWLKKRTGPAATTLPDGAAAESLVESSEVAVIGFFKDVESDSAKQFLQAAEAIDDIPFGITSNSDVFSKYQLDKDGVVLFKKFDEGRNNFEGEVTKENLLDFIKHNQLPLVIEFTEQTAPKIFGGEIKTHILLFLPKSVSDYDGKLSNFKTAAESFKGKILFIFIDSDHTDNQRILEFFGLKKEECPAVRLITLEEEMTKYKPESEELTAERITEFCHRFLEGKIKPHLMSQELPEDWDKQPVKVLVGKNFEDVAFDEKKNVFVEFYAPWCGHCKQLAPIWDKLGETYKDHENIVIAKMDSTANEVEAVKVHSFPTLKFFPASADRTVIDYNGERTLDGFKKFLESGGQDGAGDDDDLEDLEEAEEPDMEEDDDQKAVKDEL

GRVDPSNKSMPKDIA (scrPIF-1 (15)) [scrambled PIF]
interaction with PDI target (PDI): greatly reduced

Glatiramer acetate [GA]
total recovery from paraplegia (stage 4/5) (EAE; episodic treatment): 12.5%
mice disease free at the end of the study (EAE; long-term, day 50): 1/9
mice that died (EAE; long-term, day 50): three
mice that died (EAE; medium term): one
paralysis score (EAE; medium term): increased
mice with paralysis reversed / disease free (EAE; medium term, day 41): 1/7
mice free of paralysis at the end of the first remission (EAE; short term study): none
MCE (mean clinical score at end) (EAE; Experiment 1): 1.3 +/− 0.4
MCS (mean clinical score) (EAE; Experiment 1): 1.58 +/− 0.15
PP (mean peak paralysis score) (EAE; Experiment 1): 2.4 +/− 0.4
MCE (mean clinical score at end) (EAE; Experiment 2): 0.8 +/− 0.2*
MCS (mean clinical score) (EAE; Experiment 2): 1.4 +/− 0.27
PP (mean peak paralysis score) (EAE; Experiment 2): 2.5 +/− 0.4
